The text below walks through data of ChEMBL document CHEMBL4152218, “Novel hydrazide-hydrazone and amide substituted coumarin derivatives: Synthesis, cytotoxicity screening, microarray, radiolabeling and in vivo pharmacokinetic studies” (Eur J Med Chem, 2018).

Molecules are shown by their SMILES. The source made the active and inactive calls. The calls are words filed in the database; no cut-off is given here.

One may read the IC50 as the concentration that inhibits the measured activity by half. Low readings indicate higher potency, high ones lower potency.

Data set [1] relates to PANC-1. Briefly: Effect on TBC1D26 gene expression in human PANC1 cells at IC50 after 48 hrs by microarray analysis. It is filed as functional, cell-based.
The test system of data set [2] is HepG2. Briefly: Effect on ARK1B15 gene expression in human HepG2 cells at IC50 after 48 hrs by microarray analysis. It is filed as functional, cell-based.
Data set [3] deals with HepG2. Briefly: Effect on CASP7 gene expression in human HepG2 cells at IC50 by SYBR green-dye based qRT-PCR analysis relative to beta-actin. The class given is functional. In general terms: In qPCR the cycle at which signal appears reflects the starting amount.
Data set [4] relates to HepG2. The data set is described as follows: Effect on TUBB1 gene expression in human HepG2 cells at IC50 after 48 hrs by microarray analysis. It is filed as functional, cell-based.
In data set [5] the test system is PANC-1. Briefly: Effect on CAMK2N1 gene expression in human PANC1 cells at IC50 after 48 hrs by microarray analysis. The class given is functional, cell-based.
For data set [6], the system named is PANC-1. Briefly: Effect on LIMK1 gene expression in human PANC1 cells at IC50 after 48 hrs by microarray analysis. The class given is functional, cell-based.
In data set [7] the test system is HepG2. Briefly: Antiproliferative activity against human HepG2 cells after 48 hrs by resazurin dye-based fluorescence assay. The following applies: HepG2, 48 h. The class given is functional, cell-based.
For data set [8], the system named is HepG2. Briefly: Effect on CASP7 gene expression in human HepG2 cells at IC50 after 48 hrs by microarray analysis. The class given is functional, cell-based.
In data set [9] the test system is PANC-1. Briefly: Effect on NBPF20 gene expression in human PANC1 cells at IC50 after 48 hrs by microarray analysis. The class given is functional, cell-based.
Data set [10] concerns HepG2. Briefly: Effect on INHBE gene expression in human HepG2 cells at IC50 after 48 hrs by microarray analysis. It is filed as functional, cell-based.
Data set [11] has as its system HepG2. The data set is described as follows: Effect on GADD45A gene expression in human HepG2 cells at IC50 after 48 hrs by microarray analysis relative to control. The class given is functional.
Data set [12] in a line: Selectivity index, ratio of IC50 for hTERT-RPE1 cells to IC50 for human PANC1 cells. It is filed as toxicity. The following applies: hTERT-RPE1 cells versus PANC1 cells, read-out: Ratio IC50.
Data set [13] deals with PANC-1. Briefly: Effect on EIF5 gene expression in human PANC1 cells at IC50 after 48 hrs by microarray analysis. It is filed as functional, cell-based.
The test system of data set [14] is HepG2. The data set is described as follows: Effect on C1orf186 gene expression in human HepG2 cells at IC50 after 48 hrs by microarray analysis. It is filed as functional, cell-based.
Data set [15] has as its system PANC-1. Briefly: Effect on PVRL3 gene expression in human PANC1 cells at IC50 after 48 hrs by microarray analysis. The class given is functional, cell-based.
The subject of data set [16] is PANC-1. Briefly: Effect on TDG gene expression in human PANC1 cells at IC50 after 48 hrs by microarray analysis. The class given is functional, cell-based.
Data set [17] concerns HepG2. The data set is described as follows: Effect on CASP8 gene expression in human HepG2 cells at IC50 after 48 hrs by microarray analysis. The class given is functional, cell-based.

Consider `O=C(N/N=C/c1cc2ccccc2nc1Cl)c1cc2cc(Br)ccc2oc1=O`, for which the result in the data set on PANC-1 [1], in the data set with HepG2 [2], with HepG2 [4], with PANC-1 [5], with PANC-1 [6] and in the data set on HepG2 [8] was Active. Moreover, the result in the data set on PANC-1 [9], in the data set with HepG2 [10], in the data set with PANC-1 [13], in the data set with HepG2 [14], in the data set on PANC-1 [15] and in the data set with PANC-1 [16] was Active. Further, the outcome with HepG2 [17] was Active. Also, the “fold change (FC)” value in the data set on HepG2 [3] is on record as 2.45; in the data set with HepG2 [11], 1.96. In the data set on HepG2 [7], the IC50 was 9.42 µM. In [12], the selectivity ratio is more than 9.18.
